In brackets after ≈: the same amount, converted by molar mass.
conditions: buffer; pH 7.4; 200.0 µM

`O=C(O)/C(=C/c1ccco1)NC(=O)c1ccc(Br)o1` and `O=C(CNC(=O)c1ccccc1)Oc1cccc(Cl)c1` cannot be ordered by solubility kinetic: over 48.9 µg/mL for the first, over 43.5 µg/mL for the second.

`COc1ccc(CCNC(=O)c2cccn2C)cc1` and `COc1ccc(CCNC(=O)c2ccco2)cc1OC` are within 1.5-fold of each other in solubility kinetic: 33.3 µg/mL (≈ 129 µM) for the first, 40.8 µg/mL (≈ 148 µM) for the second.

First: O=C(CCNC(=O)c1ccccc1Cl)OCC(=O)c1ccccc1
Second: O=C(COC(=O)Cc1ccccc1F)NCc1ccc(Cl)cc1
The solubility kinetic of the first is higher: over 51.9 µg/mL for the first, 17.5 µg/mL (≈ 52.1 µM) for the second.

Going from `CC1(C)CC(/C=C/c2ccccc2)=Nc2ccccc2N1` to `COc1ccc(Nc2nc(-c3ccccc3O)nc3ccccc23)cc1`, the solubility kinetic falls from 27.2 µg/mL (≈ 98.4 µM) to under 0.2 µg/mL.

Going from `CC(NC(=O)CCNC(=O)c1ccc(C(C)(C)C)cc1)c1ccccc1` (centres undefined) to `Cc1ccc(NC(=O)CCNC(=O)c2ccc(Cl)cc2)cc1C`, the solubility kinetic falls from 17.1 µg/mL (≈ 48.5 µM) to 1.7 µg/mL (≈ 5.14 µM) (10-fold).

`Cc1cc(C(=O)OCC(=O)NC(C)C)c2ccccc2n1` and `CC(C)CNC(=O)COC(=O)c1c2c(nc3ccccc13)CCC2` cannot be ordered by solubility kinetic: over 42.9 µg/mL for the first, over 49 µg/mL for the second.

First: CCOC(=O)C1=C(C)NC2=C(C(=O)c3ccccc32)C1c1ccc([N+](=O)[O-])o1 (centres undefined)
Second: O=C(OCc1ccc([N+](=O)[O-])cc1)c1cc2ccccc2oc1=O
The solubility kinetic of the first is higher: 7.4 µg/mL (≈ 19.5 µM) for the first, under 0.7 µg/mL for the second.

Going from `COc1ccc(-c2nc3ccccc3c(=O)n2CCc2ccc(O)cc2)cc1` to `CC(=O)Oc1cccc(-c2nc3ccccc3c(=O)o2)c1`, the solubility kinetic falls from 12.4 µg/mL (≈ 33.3 µM) to 7.9 µg/mL (≈ 28.1 µM) (1.6-fold).

Compared with `CS(=O)(=O)c1ccccc1C(=O)Nc1ccc(S(=O)(=O)N2CCCC2)cc1`, `COc1ccc(C(=O)Nc2cccc(S(=O)(=O)N(C)C)c2)cc1S(=O)(=O)N1CCOCC1` is lower in solubility kinetic: over 61.3 µg/mL for the first, 12.3 µg/mL (≈ 25.4 µM) for the second.

Going from `COc1cccc(N2CCN(CC(=O)NCc3ccccc3)CC2)c1` to `COc1ccc(C(=O)NC2CCN(C(=O)NCc3ccccc3)CC2)cc1`, the solubility kinetic falls from 50.3 µg/mL (≈ 148 µM) to 5.4 µg/mL (≈ 14.7 µM) (9.3-fold).

Going from `COc1ccc(CN2CCc3c([nH]c4ccccc34)C2)cc1Br` to `COc1cccc(CN2C(=O)C(C)Oc3ccccc32)c1` (centres undefined), the solubility kinetic rises from 9.8 µg/mL (≈ 26.4 µM) to 26.5 µg/mL (≈ 93.5 µM) (2.7-fold).

Going from `CC(Sc1nc(N)cc(=O)[nH]1)C(=O)Nc1nc2c(s1)CCCC2` (centres undefined) to `Nc1nc(-c2ccc3c(c2)CCCC3)c(CC(=O)O)s1`, the solubility kinetic rises from 8.7 µg/mL (≈ 24.8 µM) to 42.3 µg/mL (≈ 147 µM) (4.9-fold).

Compared with `COc1ccc(CCC(=O)NC2CCC(C)CC2)cc1` (centres undefined), `COc1ccc2nc(SCC(=O)NC3CCCCC3)[nH]c2c1` is higher in solubility kinetic: 22.2 µg/mL (≈ 80.6 µM) for the first, over 47.9 µg/mL for the second.

First: Cc1ccc(NCC(=O)N/N=C/c2ccncc2)cc1
Second: Cc1ccc(NC(=S)N(CCN(C)C)Cc2cccs2)cc1
The solubility kinetic of the first is higher: over 40.2 µg/mL for the first, 12.2 µg/mL (≈ 36.6 µM) for the second.

Compared with `O=c1c([N+](=O)[O-])cccn1Cc1cccc(Br)c1`, `N#C/C(=C\c1ccc(O)c([N+](=O)[O-])c1)C(=O)NCc1ccccc1` is lower in solubility kinetic: over 46.4 µg/mL for the first, 46.2 µg/mL (≈ 143 µM) for the second.

First: Cc1ccc(OCC(=O)O/N=C(\N)c2ccccn2)cc1C
Second: COc1ccccc1CNC(=O)COc1cccnc1[N+](=O)[O-]
The solubility kinetic of the first is lower: 38.1 µg/mL (≈ 127 µM) for the first, over 47.6 µg/mL for the second.

`O=C1CCCN1CCCNS(=O)(=O)c1cccc(F)c1` and `NC(=O)c1cc(S(=O)(=O)Nc2ccccc2)cs1` cannot be ordered by solubility kinetic: over 45.1 µg/mL for the first, over 42.3 µg/mL for the second.

Compared with `COc1ccccc1CC(=O)OCC(=O)N1CCN(c2ccc(F)cc2)CC1`, `CCOc1ccccc1NC(=O)c1cccc2ccccc12` is lower in solubility kinetic: over 58 µg/mL for the first, 7.7 µg/mL (≈ 26.4 µM) for the second.

`CN1CCN(c2ccc(Cl)cc2N)CC1` and `Cc1cccc2cc(C#N)c(N3CCC(O)CC3)nc12` are within 1.5-fold of each other in solubility kinetic: 30.6 µg/mL (≈ 136 µM) for the first, 34.3 µg/mL (≈ 128 µM) for the second.

First: Nc1cc(=O)[nH]c(SCC(=O)Nc2ccccc2-c2ccccc2)n1
Second: CC(C)CC(=O)Nc1ccc2ccccc2c1
The solubility kinetic of the first is higher: over 52.9 µg/mL for the first, 6.2 µg/mL (≈ 27.3 µM) for the second.

Compared with `CS(=O)(=O)N1CCn2c1nc1ccccc12`, `COC(=O)c1cc(=O)n2c(sc3ccccc32)c1C#N` is lower in solubility kinetic: over 35.6 µg/mL for the first, 1.3 µg/mL (≈ 4.57 µM) for the second.

Going from `COc1ccccc1C(=O)N=c1sc2c(C)ccc(OC)c2n1C` to `Cc1ccc(/C=[N+](\[O-])c2ccccc2C)o1`, the solubility kinetic rises from 1.8 µg/mL (≈ 5.26 µM) to 22.2 µg/mL (≈ 103 µM) (12-fold).

`O=C(O)/C=C/c1ccc(-n2ccnc2)cc1` and `O=C(CSCc1ccc(Cl)cc1)Nc1cccc(C(=O)O)c1` cannot be ordered by solubility kinetic: over 32.1 µg/mL for the first, over 50.4 µg/mL for the second.

Going from `COC(=O)CCCCCCCCC(O)CN(C)C` (centres undefined) to `COC(=O)c1c(-c2c(Cl)cccc2Cl)noc1NC(=O)N(C)C`, the solubility kinetic rises from 27.7 µg/mL (≈ 107 µM) to 49.3 µg/mL (≈ 138 µM) (1.8-fold).

Compared with `O=C(NC1CCCCC1)C1COc2ccccc2O1` (centres undefined), `CS(=O)(=O)c1ccc(C(=O)OCC(=O)NC(=O)C2COc3ccccc3O2)cc1[N+](=O)[O-]` (centres undefined) is lower in solubility kinetic: over 39.2 µg/mL for the first, 39.2 µg/mL (≈ 84.4 µM) for the second.

Going from `O=C(COc1ccc(Cl)cc1)Nc1ncc([N+](=O)[O-])s1` to `COc1cccc(OCCNS(=O)(=O)c2ccccc2[N+](=O)[O-])c1`, the solubility kinetic rises from 3.2 µg/mL (≈ 10.2 µM) to 47.2 µg/mL (≈ 134 µM) (15-fold).

`O=[N+]([O-])c1ccccc1OCCN1CCOCC1` and `COCCNC(=S)N1CCC(Cc2ccccc2)CC1` cannot be ordered by solubility kinetic: over 37.8 µg/mL for the first, over 43.9 µg/mL for the second.

Compared with `O=C(CCc1ccccc1O)NC1CCCc2ccccc21` (centres undefined), `O=C(Nc1ccc2c(c1)OCO2)c1ccc([N+](=O)[O-])cc1[N+](=O)[O-]` is lower in solubility kinetic: over 44.3 µg/mL for the first, 10.6 µg/mL (≈ 32 µM) for the second.

`Cn1c(SCC2CCCO2)nnc1-c1cccc([N+](=O)[O-])c1` (centres undefined) and `COc1cccc(C(O)c2cnc(C(C)C)n2C)c1` (centres undefined) cannot be ordered by solubility kinetic: over 48.1 µg/mL for the first, over 39.1 µg/mL for the second.

In the case of `CCOP(=O)(OCC)/C(=N/OC(=O)c1ccc(OC)cc1)C(N)=O`, the solubility kinetic is reported as over 53.7 µg/mL.
